Data published in patent US7754677B2, “Composition and method for reducing diarrhea in a mammal” (Hill's Pet Nutrition, Inc., priority 2003, dated 2010).

Legend:
[1] = Postprandial plasma glutamine dose response study in dogs; assay type: in vivo
Protocol: In one experiment, a source of glutamine was tested to see if it was bioavailable and able to deliver adequate glutamine to the intestinal cells. The source of glutamine was a wheat hydrolysate with an enrichment of 30% glutamine. A dose response study was carried out in 6 dogs to see if increasing levels of the glutamine source (0, 0.5, 1.0, 2% glutamine content) was detected in the plasma after feeding the diet.

T cell lymphocyte = test: T-cell proliferation assay in response to ConA mitogen, blood of dogs fed glutamine supplemented diet; assay type: in vivo, Beagle dogs; settings: for T cell proliferation (log10 cpm): ConA mitogen, data collapsed across ConA doses
Protocol: In a further experiment, the efficacy of glutamine as a immune-modulator was examined. 20 Beagle dogs were randomly allocated into 4 groups receiving either basic diet or basic diet supplemented with 1%, 2%, or 4% glutamine. Blood samples were drawn in heparinized tubes from animals 2 hrs after their last feeding on day 1 and 16. Samples were prepared for immune measurement. (T cell proliferation assay).
T-cell proliferation assay. Peripheral blood leukocytes (PBL) in each blood sample were counted using Nova Celltrak II (Beckman Coulter Corp., Fla.). Blood was diluted (1:20) with supplemented media. Diluted blood was plated, in triplicate, in 96 well cell culture plates with the following mitogens diluted in supplemented media: Concanavalin A (0.5 μg/ml, 2.5 μg/ml. Plates were incubated in a humidified incubator containing 7% CO2 at 37° C. for 72 hrs. Cellular DNA was […]. Cellular DNA was harvested on glass fiber paper using a cell harvester (Skatron Instruments Inc., Va.) and suspended with 1.5 ml scintillation cocktail. [^3H]thymidine uptake was quantified as counts per minutes (CPM) using TriCarb 2100TR Liquid Scintillation Analyzer (Packard BioScience Company, Ill.). Counts were normalized to CPM/10,000 cells to account for variation in PBL concentrations.
Concanvalin A (Con A) is a polyclonal T-cell mitogen. […] Thus, the data were collapsed across the different doses of Con A to show the proliferative response of lymphocytes dependent on percentage of glutamine supplemented in the diet.

% Change in plasma glutamine from control ([1]; 0.5% supplemented glutamine in food): 3% | % Change in plasma glutamine from control ([1]; 1.0% supplemented glutamine in food): 10% | % Change in plasma glutamine from control ([1]; 2.0% supplemented glutamine in food): 15%
Compound: NC(=O)CC[C@H](N)C(=O)O [glutamine]
Lymphocyte proliferation, result in words (T cell lymphocyte; 1% glutamine in diet, versus control group P<0.05): maximum lymphocyte proliferation | T cell proliferation (log10 cpm) (T cell lymphocyte; 1% supplemental glutamine in diet): 5 log10 cpm | T-lymphocytes proliferation, result in words (T cell lymphocyte; 1-2% glutamine in diet): enhances overall T-lymphocytes proliferation | T cell proliferation (log10 cpm) (T cell lymphocyte; 2% supplemental glutamine in diet): 4.8 log10 cpm | T-lymphocytes proliferation, result in words (T cell lymphocyte; 4% glutamine in diet): not additionally beneficial | T cell proliferation (log10 cpm) (T cell lymphocyte; 4% supplemental glutamine in diet): 4.5 log10 cpm
